Measurements as given in patent US11667946B2, “Detection of beta-hemolytic pathogens” (TEMASEK LIFE SCIENCES LABORATORY LIMITED, priority 2016, dated 2023).

Legend:
[1] = test system: gram-negative bacteria; assay: Uptake of free H33342 by bacteria on BHI agar; format: cell-based
Experimental: (§1) Uptake of free H33342 by bacteria: The uptake of free H33342 was investigated by repeating the experiment as above but replacing liposomal H33342 with free H33342 dye (final concentration, 160 nM). Sodium hexametaphosphate (305553, Sigma-Aldrich) was added to a concentration of up to 0.3% for membrane permeabilization experiments.

[2] = test system: gram-positive bacteria; assay: Uptake of free H33342 by bacteria on BHI agar; format: cell-based; conditions: 160 nM, overnight
Experimental: as §1

[3] = test system: a variety of bacteria; assay: Culturing bacteria on BHI agar with free H33342; format: cell-based; conditions: 160 nM
Experimental: as §1

[4] = test system: E. coli; assay: Membrane permeabilization with sodium hexametaphosphate (H33342 uptake); format: cell-based, Escherichia coli; conditions: H33342 agar with sodium hexametaphosphate
Experimental: as §1

[5] = test system: S. pyogenes; assay: as above; format: cell-based, Streptococcus pyogenes; conditions: at 0.3%
Experimental: as §1

Compound | uptake of dye [1] | colony association with / uptake of free dye [2] | lethality to bacteria [3] | increase of colony fluorescence [4] [%] | lethality to bacterium [5]
CCOc1ccc(-c2nc3ccc(-c4nc5ccc(N6CCN(C)CC6)cc5[nH]4)cc3[nH]2)cc1 [H33342, Hoechst 33342] | not taken up | fluoresce blue | non-lethal |  | 
O=P1([O-])OP(=O)([O-])OP(=O)([O-])OP(=O)([O-])OP(=O)([O-])OP(=O)([O-])O1.[Na+].[Na+].[Na+].[Na+].[Na+].[Na+] [sodium hexametaphosphate] |  |  |  | 80 | lethal
